From patent publication US11136601B2, “Conversion of S-lignin compounds to useful intermediates” (Alliance for Sustainable Energy, LLC, priority 2018, dated 2021)

Assays:
[1] = target: T1, VanAB (vanillate demethylase; purified VanA and VanB subunits) (Pseudomonas putida, UniProt Q88GI6); experiment: VanAB in vitro enzymatic assay (kinetics and specific activity, NADPH consumption at 340 nm); settings: for VanAB specific activity: 100 μM substrate, pH 7.5; for VanAB specific activity / Kcat: 100 μM NADPH; for Kcat: Michaelis-Menten kinetics, 20 mM Tris-HCl pH 7.5
T1 sequence (Q88GI5 entry or part of it, one chain of several): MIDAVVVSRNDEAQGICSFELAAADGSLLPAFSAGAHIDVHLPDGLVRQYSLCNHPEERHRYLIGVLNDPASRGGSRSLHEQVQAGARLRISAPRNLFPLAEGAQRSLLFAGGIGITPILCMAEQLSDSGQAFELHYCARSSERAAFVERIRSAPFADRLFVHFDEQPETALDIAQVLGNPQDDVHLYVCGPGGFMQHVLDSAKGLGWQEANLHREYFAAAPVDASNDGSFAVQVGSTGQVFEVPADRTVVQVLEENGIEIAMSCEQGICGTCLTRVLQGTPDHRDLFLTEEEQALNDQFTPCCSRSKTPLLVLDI
Experimental: VanAB activity was also tested towards vanillate analogous substrates such as vanillin, ferulic acid, sinapinic acid, methyl vanillate, ethyl vanillate, and guaiacol.
(§1) Activity assay were followed by cofactor NADPH consumption monitored spectrophotometrically at 340 nm.

[2] = test system: P. putida KT2440 wild-type; experiment: Toxicity assessment of S-lignin derived monomers, growth (OD600) of wild-type strain; type: cell-based, Pseudomonas putida; settings: wild-type KT2440, M9 minimal media with 20 mM glucose
Excerpt: (§2) FIG. 9 illustrates: Panel A. Wild-type P. putida KT24401 and Panel B. P. putida CJ486 (second copy vanAB overexpressed in genome), both according to some embodiments of the present disclosure. […] Cultures were sampled periodically to evaluate growth by OD600 and metabolite concentrations in the media using HPLC. Each point represents the average of two measurements with error bars representing their range.
(§3) FIG. 10 illustrates: Panel A. Wild-type P. putida KT2440; and Panel B. P. putida CJ486 (second copy vanAB overexpressed in genome), both according to some embodiments of the present disclosure. Cells were grown in M9 minimal medium containing 20 mM glucose and various concentrations of SAL. Cultures were sampled periodically to evaluate growth by OD600 and metabolite concentrations in the media using HPLC. Each point represents the average of two measurements with error bars representing their range.
as §2, with “11” for “9”, “KT2440;” for “KT24401”
(§4) To evaluate this, the engineered strain CJ486 and wild-type strain were grown in M9 minimal media containing 20 mM glucose and various concentrations of the S-lignin monomers.
(§5) Strains were cultivated overnight in LB medium, washed once with 1×M9 medium (6.78 g/L disodium phosphate, 3 g/L monopotassium phosphate, 0.5 g/L NaCl, 1 g/L NH4Cl, 2 mM MgSO4, 100 μM CaCl2), and 18 μM FeSO4, pH 7.0) and used to inoculate 125 mL baffled flasks containing M9 minimal media supplemented with various concentrations of S-lignin monomers (SA, 3-MGA or syringaldehyde (SAL), stock solution dissolved in 2% DMSO) and 20 mM glucose in some cases, to an optical density of 0.1 and incubated shaking at 225 rpm, 30° C. Cultures were sampled periodically by removing 1 mL that was used to measure the OD600 using a spectrophotometer (DU640 Beckman Coulter). In the case of 3-MGA provided to wild-type strain KT2440, SN166 and SN175, the reaction was downscaled to 50 mL baffled flasks containing 10 mL minimal media and the experiment was performed in duplicate.

[3] = test system: P. putida CJ486 (second copy vanAB overexpressed in genome); experiment: Toxicity assessment of S-lignin derived monomers, growth (OD600) of engineered strain CJ486; type: cell-based, Pseudomonas putida; settings: strain CJ486, M9 minimal media with 20 mM glucose
Excerpt: as §2, §3
as §2, with “11” for “9”, “KT2440;” for “KT24401”
as §4, §5

[4] = target: T1, VanAB (vanillate demethylase; purified VanA and VanB subunits); experiment: VanAB in vitro time course of substrate consumption and product formation (HPLC); type: biochemical, P. putida KT2440; settings: 30 minutes time course, 100 μM substrate, VanAB 1.3 μM, room temperature
Experimental: FIG. 13 illustrates time course of VA consumption/PCA production and SA consumption/3-MGA production, according to some embodiments of the present disclosure. VanAB (1.3 μM) was incubated with 100 μM VA or SA at room temperature, in the presence of 0.5 μM NADPH. Results are an average of at least two experiments.
FIG. 14 illustrates time-course of 3MGA consumption and GA formation, according to some embodiments of the present disclosure.
as §1
Metabolites analysis: Samples from the in vivo experiments were centrifuged to remove the cells and the supernatants were filtered through a 0.2 μm syringe filter and metabolite concentrations were analyzed on an Agilent 1100 series HPLC equipped with Phenominex Rezex™ RFQ-Fast Acid H^+ (8%), LC Column, a diode array detector, and refractive index detector and a 0.01 N H2SO4 mobile phase. The products were identified by comparing the retention times and spectral profiles with pure compounds. Shake flask experiments were performed in triplicate and the standard deviation of the triplicate measurement were calculated using the following equation: in which x is each value in a sample, x is the average of the values, and n is the number of values. The same method was employed to analyze the metabolites from the in vitro reaction. PDC compounds was analyzed and quantified by ^1H NMR spectrum. […], of fermentation broth was diluted in 400 μL of deuterium oxide (Isotope Laboratories Inc.) and 50 μL of deuterium oxide containing known mass of the internal standard succinic acid.

[5] = substrate: COc1cc(C(=O)O)cc(OC)c1O; experiment: purified protein, by the assay type; settings: other: Michaelis-Menten kinetics, 100 μM NADPH, 20 mM Tris-HCl pH 7.5, 30.0 °C
[6] = substrate: COc1cc(C(=O)O)ccc1O; experiment: purified protein, by the assay type; settings: other: apparent constant (substrate inhibition kinetics); NADPH measured in the presence of VA; pH 7.5; 30.0 °C
[7] = apparent constant (substrate inhibition kinetics), NADPH measured in the presence of VA

**Q.** Which results are given for COc1cc(C(=O)O)cc(O)c1O [3-MGA, 3-O-methyl gallate]?
**A.** VanAB specific activity [1]: 264 ± 86 U/mg; Kcat [1]: 0.435 ± 0.0467 s⁻¹; Kcat ([1]; listed as 3MGA): 0.435 ± 0.0467 s⁻¹

**Q.** Which results are given for CCOC(=O)c1ccc(O)c(OC)c1 [Ethylvanillate, ethyl vanillate]?
**A.** VanAB specific activity [1]: 100 ± 27 U/mg; VanAB specific activity ([1]; listed as ethyl vanillate): 100±27 U/mg

**Q.** O=C(O)c1cc(O)c(O)c(O)c1 [Gallate, gallic acid] was tested. Which “concentration at which growth was completely inhibited (no growth)” value [2] did it give?
**A.** The value was 50000 µM.

**Q.** What about the “highest concentration tolerated / that allowed growth” value [2] of the same molecule?
**A.** Its value is 20 mM.

**Q.** What about the “concentration at which growth was completely inhibited (no growth)” value [3] of the same molecule?
**A.** Its value is 50000 µM.

**Q.** What about the “highest concentration tolerated / that allowed growth” value [3] of the same molecule?
**A.** The value was 20 mM.

**Q.** Which results are given for COc1ccccc1O [Guieicol, guaiacol]?
**A.** VanAB specific activity [1]: 188 ± 16 U/mg; VanAB specific activity ([1]; listed as guaiacol): 188±16 U/mg

**Q.** With NC(=O)C1=CN([C@@H]2O[C@H](COP(=O)(O)OP(=O)(O)OC[C@H]3O[C@@H](n4cnc5c(N)ncnc54)[C@H](OP(=O)(O)O)[C@@H]3O)[C@@H](O)[C@H]2O)C=CC1 [NADPH, reference compound] as the molecule, how does the KMapp [1, 7] read?
**A.** Its KMapp is 26.7 ± 3.7 µM.

**Q.** What about the “Kcat^app” value [1, 7] of the same molecule?
**A.** The value was 0.045 ± 0.0183 s⁻¹.

**Q.** And the Ki ([1]; read-out: Ki (substrate inhibition), substrate inhibition kinetics, NADPH-dependent inhibition measured in the presence of VA)?
**A.** The Ki was 25.3 ± 7.4 µM.

**Q.** What does the source list for COc1cc(C=O)cc(OC)c1O [SAL, syringaldehyde]?
**A.** concentration at which growth was completely inhibited (no growth) [2]: 50000 µM; highest concentration tolerated / that allowed growth [2]: 20 mM; concentration at which growth was completely inhibited (no growth) [3]: 50000 µM; highest concentration tolerated / that allowed growth [3]: 20 mM

**Q.** Which VanAB specific activity [1] does the source give for COc1cc(C(=O)O)cc(OC)c1O [Syringate, syringic acid] here?
**A.** The VanAB specific activity was 704 ± 103 U/mg.

**Q.** What about the Kcat ([1]; listed as SA) of the same molecule?
**A.** The Kcat was 1.13 ± 0.0683 s⁻¹.

**Q.** And the “product formed (protocatechuate from VA; 3-MGA from SA)” value [4]?
**A.** The value was 9 µM.

**Q.** And the residual substrate concentration [4]?
**A.** Its residual substrate concentration is 70 µM.

**Q.** And the “highest concentration tolerated / that allowed growth” value [2]?
**A.** The value was “at least 120 mM”.

**Q.** And the “highest concentration tolerated / that allowed growth” value [3]?
**A.** The value was “at least 120 mM”.

**Q.** With COc1cc(C(=O)O)ccc1O [Vanillate, vanillate] as the molecule, how does the VanAB specific activity [1] read?
**A.** The VanAB specific activity was 403 ± 59 U/mg.

**Q.** What about the “product formed (protocatechuate from VA; 3-MGA from SA)” value [4] of the same molecule?
**A.** Its value is 47 µM.

**Q.** What about the “substrate converted (metabolized)” value [4] of the same molecule?
**A.** The value was 58 µM.

**Q.** How did the VanAB specific activity [1] turn out when COc1cc(C=O)ccc1O [Vanillin, vanillin] was run?
**A.** Its VanAB specific activity is 49 ± 18 U/mg.

**Q.** And the VanAB specific activity ([1]; listed as vanillin)?
**A.** Its VanAB specific activity is 49±18 U/mg.

**Q.** And the “fold lower specific activity in comparison to VA” value ([1]; VanAB specific activity relative to VA)?
**A.** The value was 10 fold.

B1: VanAB (vanillate demethylase; purified VanA and VanB subunits) (Pseudomonas putida KT2440) (protein)
chain: MYPKNTWYVACTPDEIATKPLGRQICGEKIVFYRARENQVAAVEDFCPHRGAPLSLGYVEDGNLVCGYHGLVMGCDGKTVSMPGQRVRGFPCNKTFAAVERYGFIWVWPGDQAQADPALIPHLEWAVSDEWAYGGGLFHIGCDYRLMIDNLMDLTHETYVHASSIGQKEIDEAPPVTTVTGDEVVTARHMENIMAPPFWRMALRGNGLADDVPVDRWQICRFTPPSHVLIEVGVAHAGKGGYHAEAQHKASSIVVDFITPESDTSIWYFWGMARNFAAHDQTLTDNIREGQGKIFSEDLEMLERQQQNLLAHPERNLLKLNIDAGGVQSRKVLERIIAQERAPQPQLIATSANPA
**Q.** With B1 as the molecule, how does the Km [5] read?
**A.** Its Km is 113.9 ± 21.5 µM.

**Q.** What about the kcat [5] of the same molecule?
**A.** Its kcat is 1.13 ± 0.0683 s⁻¹.

**Q.** And the Km [6]?
**A.** The Km was 4.3 ± 3.1 µM.

**Q.** And the kcat [6]?
**A.** The kcat was 0.28 ± 0.0317 s⁻¹.
